Results as given in patent publication US20250154171A1, “RAS INHIBITORS” (Revolution Medicines, Inc., priority 2023, published 2025).
Read-outs that look alike come from different tables or passages of the source. Blank lines part the entries; values can stand above or below the compound they belong to.

How the values were obtained:
[1] = ester bond, 18-membered ring, PyBOP/HOBt/DIEA
K-RasG12V (Capan-1) = assay: Potency assay: cellular pERK (AlphaLISA SureFire or In-Cell Western), Capan-1; assay type: cell-based; settings: Homo sapiens; Capan-1 cells; 4 hours; in at least one of the assays (AlphaLISA or In-Cell Western); read-out: pERK IC50 with respect to K-RasG12V (Capan-1)
Text: The purpose of this assay is to measure the ability of test compounds to inhibit K-Ras in cells. Activated K-Ras induces increased phosphorylation of ERK at Threonine 202 and Tyrosine 204 (PERK). This procedure measures a decrease in cellular pERK in response to test compounds. The procedure described below in Capan-1 cells is applicable to K-RasG12V.
Note: This protocol may be executed substituting other cell lines to characterize inhibitors of other RAS variants, including, for example, NCI-H358 (K-Ras G12C), AsPC-1 (K-Ras G12D), Capan-1 (K-Ras G12V), or NCI-H1355 (K-Ras G13C).
Cells are grown and maintained using media and procedures recommended by the ATCC. On the day prior to compound addition, cells are plated in 384-well cell culture plates (40 μl/well) and grown overnight in a 37° C., 5% CO2 incubator. Test compounds are prepared in 10, 3-fold dilutions in DMSO, with a high concentration of 10 mM. On the day of assay, 40 nL of test compound is added to each well of cell culture plate using an Echo550 liquid handler (LabCyte®). Concentrations of test compound are tested in duplicate. After compound addition, cells are incubated 4 hours at 37° C., 5% CO2. Following incubation, culture medium is removed, and cells are washed once with phosphate buffered saline.
In some experiments, cellular pERK level is determined using the AlphaLISA SureFire Ultra p-ERK1/2 Assay Kit (PerkinElmer). Cells are lysed in 25 μL lysis buffer, with shaking at 600 RPM at room temperature. Lysate (10 μL) is transferred to a 384-well Opti-plate (PerkinElmer) and 5 μL acceptor mix is added. After a 2-hour incubation in the dark, 5 μL donor mix is added, plate is sealed, and incubated 2 hours at room temperature. Signal is read on an Envision plate reader (PerkinElmer) using standard AlphaLISA settings. Analysis of raw data is carried out in Excel (Microsoft) and Prism (GraphPad). Signal is plotted vs. the decadal logarithm of compound concentration, and IC50 is determined by fitting a 4-parameter sigmoidal concentration response model.
In other experiments, cellular pERK is determined by In-Cell Western. Following compound treatment, cells are washed twice with 200 μL tris buffered saline (TBS) and fixed for 15 minutes with 150 μL 4% paraformaldehyde in TBS. Fixed cells are washed 4 times for 5 minutes with TBS containing 0.1% Triton X-100 (TBST) and then blocked with 100 μL Odyssey blocking buffer (LI-COR) for 60 minutes at room temperature. Primary antibody (PERK, CST-4370, Cell Signaling Technology) is diluted 1:200 in blocking buffer, and 50 μL is added to each well and incubated overnight at 4° C. Cells are washed 4 times for 5 minutes with TBST. Secondary antibody (IR-800CW rabbit, LI-COR, diluted 1:800) and DNA stain DRAQ5 (LI-COR, diluted 1:2000) are added and incubated 1-2 hours at room temperature. Cells are washed 4 times for 5 minutes with TBST. Plates are scanned on a Li—COR Odyssey CLx Imager. Analysis of raw data is carried out in Excel (Microsoft) and Prism (GraphPad). Signal is plotted vs. the decadal logarithm of compound concentration, and IC50 is determined by fitting a 4-parameter sigmoidal concentration response model.

SMILES: COC1CN([C@@H]2c3nc(cs3)-c3ccc4c(c3)c(c(-c3cccnc3[C@H](C)OC)n4C3CN(C4CC4)C3)CC(C)(C)COC(=O)[C@@H]3CCCN(N3)C(=O)[C@H]2NC(=O)OC(C)(C)C)C1
ring closure, yield after HPLC ([1]; from COC1CN([C@H](c2nc(-c3ccc4c(c3)c(CC(C)(C)CO)c(-c3cccnc3[C@H](C)OC)n4C3CN(C4CC4)C3)cs2)[C@H](NC(=O)OC(C)(C)C)C(=O)N2CCC[C@@H](C(=O)O)N2)C1, DMF, 11.2 mM, 25.0 °C, 5.0 h): 40.2%

SMILES: CO[C@@H](C)c1ncc(C2CN(C3CC3)C2)cc1-c1c2c3cc(ccc3n1CCOC1CCOCC1)-c1csc(n1)[C@@H](N1CC3(COC3)C1)[C@H](NC(=O)[C@@H]1OC[C@@H]1C)C(=O)N1CCC[C@H](N1)C(=O)OCC(C)(C)C2
ring closure, yield after HPLC ([1]; from CO[C@@H](C)c1ncc(C2CN(C3CC3)C2)cc1-c1c(CC(C)(C)CO)c2cc(-c3csc([C@H]([C@H](NC(=O)[C@@H]4OC[C@@H]4C)C(=O)N4CCC[C@@H](C(=O)O)N4)N4CC5(COC5)C4)n3)ccc2n1CCOC1CCOCC1, MeCN, 1.44 mM, 35.0 °C, 3.0 h): 20%

IC50 (K-RasG12V (Capan-1)): < 650 nM
SMILES: CO[C@@H](C)c1ncccc1-c1c2c3cc(ccc3n1C1CN(C3CC3)C1)-c1coc(n1)[C@@H](N1CCN(C)CC1)[C@H](NC(=O)[C@@H]1[C@@H](C)[C@H]1c1ccncn1)C(=O)N1CCC[C@H](N1)C(=O)OCC(C)(C)C2 (atropisomer, axis not shown) [Example A1104]

SMILES: CO[C@@H](C)c1ncccc1-c1c2c3cc(ccc3n1C1CC(C#N)C1)-c1coc(n1)[C@@H](N1CC3(COC3)C1)[C@H](NC(=O)OC(C)(C)C)C(=O)N1CCC[C@H](N1)C(=O)OCC(C)(C)C2 (stereo partly shown)
ring closure, yield after HPLC ([1]; from CO[C@@H](C)c1ncccc1-c1c(CC(C)(C)CO)c2cc(-c3coc([C@H]([C@H](NC(=O)OC(C)(C)C)C(=O)N4CCC[C@@H](C(=O)O)N4)N4CC5(COC5)C4)n3)ccc2n1C1CC(C#N)C1, DMF, 12.5 mM, 25.0 °C, 2.0 h): 27.4%
